Where “and” joins values, the source holds several entries; their conditions need not be identical. Equal values may be shown once. Entries after “also recorded” stand apart in the source; their conditions may differ.
Experiments:
[1] = tested on: Helicobacter pylori SS1 (CagA+, VacA+); assay: Helicobacter pylori stomach infection model in mice, oral treatment; type: in vivo, C57/BL6 mice
Text: The mouse strain used in this study is C57/BL6 ranging from 5-6 weeks in age and 18-22 grams in weight. Mice are housed five to a cage with free access to food and water in accordance with NIH guidelines.
A bacterial strain of Helicobacter pylori SS1 (CagA+, VacA+) is adapted for the mouse model from a human clinical isolate and validated in this infection model.
At 6 days prior to infection, a frozen stock is streaked onto one to two Columbia 5% sheep blood agar plates, and the plates are microaerophilically incubated for 72 hours at 37° C. After 72 hours, the plate growth is subcultured onto five Columbia 5% sheep blood agar plates and is incubated as before. After another 72 hours of incubation, the plates are removed, and the plate growth is suspended in sterile 0.9% saline to an OD of 1.5-2.0 at 530 nm. This OD is approximately equal to 1.0e+09 CFU/mL, which is used to orally infect the mice on all 3 infection days. To infect mice, the mice are orally dosed 0.25 mL of the 1.0e+09 CFU/mL via a 20-22 G gavage needle. Mice need to be fasted only before the first infection.
At 1 week post-infection, mice are treated with Nu-8. Multiple dose antibiotic therapies are administered orally at 0.2 mL/dose. Antibiotics are administered 2 times per day and continued for 7 days. The control group is administered the vehicle alone.
Food is removed from cages 18 hours prior to euthanizing animals and each cage is clearly labeled that the animals are being experimentally fasted. Mice are euthanized (CO2 & cervical dislocation). […] The excised stomach is placed into a sterile petri dish and the luminal contents are rinsed away with sterile 1×PBS. Each rinsed stomach is placed into a 14-mL Falcon tube containing 2 mL of 1×PBS and stored on ice. Each stomach is homogenized, 10-fold serial diluted in 1×PBS, spot plated onto Columbia agar with 3.5% laked horse blood±the DENT selective antibiotic supplement, and microaerophilically incubated for 5 days at 37° C. Then, colonies are counted.
Nu-8 is administered at various doses (mg/kg), orally, twice-a-day for 7 days. The formulations, concentration and dose volumes for treatment is established prior to dosing. The positive control group consists of a triple therapy regimen (omeprazole, amoxicillin, and clarithromycin). Negative control used dosing solution without drugs.

[2] = tested on: Aspergillus fumigatus (ATCC13073); assay: Individual mouse clinical signs (animal condition) in the Aspergillus fumigatus lung infection model (Example 24); type: in vivo, BALB/c mice; parameters: key: NAD = no abnormality detected
[3] = tested on: Pseudomonas aeruginosa (ATCC27853); assay: Neutropenic lung infection model in mice, aerosol treatment (Example 23); type: in vivo, BALB/c mice; conditions: for Mean ± SD (Log10 CFU/g lung) / Log10 CFU/g lung: 10% aerosol, 40 min, 24 h PI; for Log10 CFU/g lung: individual mice
Description: Neutropenic, BALB/c female mice, all of which were from 6 to 8 weeks of age, were infected intranasally with Pseudomonas aeruginosa (ATCC27853). Twenty-four hours post infection; animals were treated intra-nasally by nebulization with Nu-8 (10% nebulized for twenty minutes, twice). At two, four and six hours post treatment, animals were terminated; lung tissues were collected to determine the bacterial load.
The mice were separated into cohorts in accordance with Table 11.
On day −4 (four days before the date of infection), each mouse was dosed with a single intraperitoneal injection of cyclophosphamide equivalent to 150 mg/kg and returned to its cage. On day −1 (one day before infection) each mouse received a dose equivalent to 100 mg/kg of cyclophosphamide.
On day −1, an aliquot from glycerol stocks of P. aeruginosa (ATCC27853) was thawed, inoculated into fresh Casein Soybean Digest Broth (CSDB) and incubated overnight at 37 C.
On the day of infection (Day 0), the overnight culture was centrifuged and the cells were pelleted and resuspended in sterile normal saline to obtain approximately 10^9 CFU/ml P. aeruginosa, which was used for infection. The inoculum was serially diluted ten-fold in sterile CSDB broth and 0.05 ml of six dilutions was plated onto CSD Agar plates to determine the viable count (CFU/ml) of inoculum.
Animals were divided into different groups as specified in the experimental design (TABLE 11). Infections were conducted in a biological safety cabinet, with appropriate personnel protection. Mice were placed into an induction chamber and anesthesia was induced by exposing the animals to 3%-5% Isoflurane in an oxygen flow set at approximately 1 liter per minute (LPM). Once the animals were in a sufficiently deep plane of anesthesia, they were removed and infected. Infection was done by instilling 0.02 ml (containing ˜1×10^9 CFU/ml) intra-nasally. 10 μl was instilled into each nostril of the anesthetized animal (˜2×10^7 CFU/animal). A gentle shaking/mixing of inoculum between two animals was followed for uniform distribution.
The vehicle used for the test compound was saline (0.9% NaCl adjusted to pH 3.5 with citric acid). To make 10% solution, 15 g Nu-8 was weighed and dissolved in 145 ml of the saline and the pH of the solution was adjusted to 3.5 with citric acid (0.1 M) in a final volume of 150 ml.
Treatment was initiated twenty four hours post infection. Test formulations were administered by aerosol route with nose only apparatus connected to a nebulizer (Omron Ne-C28 Compressor Nebulizer with a volume capacity of 15 ml, Particle size 3 μm, nebulization rate: 0.5 ml/min, and Aerosol output rate: 0.09 ml/min. At the given aerosol output rate of 0.09 ml/min, a total of 6 animals at the port, each animal will receive 15 μl/min. In 40 min, a total of 60 mg in 600 μl will be delivered to each animal). The formulation prepared previously was placed into the nebulizer fluid cup; animals were placed in the nose only apparatus and the entire system was placed inside a Class II Biosafety Cabinet. Animals received nebulization for 20 min, followed by a 30-minute rest and then an additional 20-minute exposure at the same dose concentration (the flow rate and percentage of test material available at the inhalation port was 16% of the initial concentration in the nebulizer if the test compound is in solution).
Groups of animals were euthanized at 2, 4 and 6 hours post treatment, as specified in experimental design, by an overdose of CO2 in an appropriate exposure chamber.
The euthanized animals were dipped into 70% ethanol for surface decontamination. Lungs were aseptically excised, weighed, placed in a 2 ml centrifuge tube containing 1 ml of sterile CSDB broth, and homogenized (Omni Tip (220THB handheld)). Serial ten-fold dilutions of the lung homogenates were prepared in sterile CSDB broth and 0.05 ml of four dilutions for each lung was plated onto CSDA agar plates. […]

[4] = Part C, 1×10^3 conidia/animal, Nu-8 (10%), 3 doses, once daily for 3 days, aerosol, individual animals
[5] = Part D, 1×10^2 conidia/animal, Nu-8 (10%), 5 doses, once daily for 5 days, individual animals

CCCCOP(=O)(O)OC[C@H]1O[C@@H](n2ccc(N)nc2=O)C[C@@H]1OP(=O)(O)OCCCC [Nu-8, sodium ((2R,3S,5R)-5-(4-amino-2-oxopyrimidin-1(2H)-yl)-3-((butoxyoxidophosphor-yl)oxy)tetrahydrofuran-2-yl)methyl butyl phosphate]
mean bacterial stomach titers of H. pylori SS1 (Log10) ([1]; 0.2 mg (1 mg/mL, 0.2 mL) PO bid for 7 days, +7 Days): 5.62 log10 CFU
mean bacterial stomach titers of H. pylori SS1 (Log10) ([1]; 0.2 mg (1 mg/mL, 0.2 mL) PO bid for 7 days, +14 Days): 6.2 log10 CFU
mean bacterial stomach titers of H. pylori SS1 (Log10) ([1]; 1.0 mg (5 mg/mL, 0.2 mL) PO bid for 7 days, +7 Days): 5.21 log10 CFU
mean bacterial stomach titers of H. pylori SS1 (Log10) ([1]; 1.0 mg (5 mg/mL, 0.2 mL) PO bid for 7 days, +14 Days): 5.67 log10 CFU
mean bacterial stomach titers of H. pylori SS1 (Log10) ([1]; 2 mg (10 mg/mL, 0.2 mL) PO bid for 7 days, +7 Days): 4.74 log10 CFU
mean bacterial stomach titers of H. pylori SS1 (Log10) ([1]; 2 mg (10 mg/mL, 0.2 mL) PO bid for 7 days, +14 Days): 5.81 log10 CFU
Animal Condition Day 1 ([2]; Part A, 3 doses, once daily for 3 days, individual animals 19-24): Normal
Animal Condition Day 1 ([2]; Part A, 5 doses, once daily for 5 days, individual animals 25-30): Normal
Animal Condition Day 1 ([2]; Part B, 3 doses, once daily for 3 days, individual animals 23-30): NAD
Animal Condition Day 1 ([2]; Part B, single dose, individual animals 15-22): NAD
Animal Condition Day 1 [2, 4]: NAD
Animal Condition Day 2 [2, 4]: Animal dull
Animal Condition Day 3 [2, 4]: Animal dull; also recorded: Moribund
Animal Condition Day 1 [2, 5]: NAD
Animal Condition Day 2 [2, 5]: NAD
Animal Condition Day 3 [2, 5]: NAD
Animal Condition Day 4 [2, 5]: NAD
Animal Condition Day 5 [2, 5]: NAD
Mean ± SD (Log10 CFU/g lung) ([3]; 2 h post end of treatment): 4.92 ± 0.19 Log10 CFU/g lung
Log10 CFU/g lung ([3]; 2 h post end of treatment): 4.89 Log10 CFU/g lung and 4.76 Log10 CFU/g lung and 4.94 Log10 CFU/g lung and 4.98 Log10 CFU/g lung and 5.24 Log10 CFU/g lung and 4.70 Log10 CFU/g lung
Mean ± SD (Log10 CFU/g lung) ([3]; 4 h post end of treatment): 4.82 ± 0.26 Log10 CFU/g lung
Log10 CFU/g lung ([3]; 4 h post end of treatment): 4.51 Log10 CFU/g lung and 5.20 Log10 CFU/g lung and 5.02 Log10 CFU/g lung and 4.64 Log10 CFU/g lung (2×) and 4.88 Log10 CFU/g lung
Mean ± SD (Log10 CFU/g lung) ([3]; 6 h post end of treatment): 4.68 ± 0.26 Log10 CFU/g lung
Log10 CFU/g lung ([3]; 6 h post end of treatment): 4.58 Log10 CFU/g lung and 4.53 Log10 CFU/g lung and 5.16 Log10 CFU/g lung and 4.41 Log10 CFU/g lung and 4.60 Log10 CFU/g lung and 4.78 Log10 CFU/g lung
antibacterial activity vs vehicle control at 2 h and 4 h ([3]; 10%, 2, 4 and 6 hours post administration, p<0.05): significant antibacterial activity
animal condition during the study period ([3]; all groups): no abnormalities were detected

Source: patent publication US12030908B2, “Antimicrobial compounds, compositions, and uses thereof” (Lakewood Amedex, Inc., priority 2017, dated 2024)
